Data taken from patent US8097650B2, “Method of treating a condition associated with phosphorylation of TASK-1” (The Trustees of Columbia University In The City of New York, priority 2005, dated 2012).

Assays:
[1] = tested on: mouse ventricular myocytes; assay: Repolarization abnormalities in mouse ventricular myocytes paced at 1 Hz with PKCε peptides; type: cell-based
Method: Mouse ventricular myocytes were isolated using a retrograde coronary perfusion method previously published (Kuznetsov V et al. (1995) Circ Res 76: 40-52). All the experiments were carried out according to the guidelines issued by the IACUC of Columbia University. Adult mice 2 or 3 months old, were anaesthetized with a xylazine and ketamine mix and heparinized, the heart was quickly removed and the ascending aorta was connected to the outlet of a Langendorff column and perfused with 20-25 ml of a buffer solution (37° C.) containing (mM):NaCl, 112; KCl, 5.4; NaHCO3, 4.2; MgCl2, 1.6; HEPES, 20; glucose, 5.4; NaH2PO4, 1.7; taurine, 10; L-glutamine, 4.1; MEM amino acids solution, 2%; MEM vitamin solution, 1%; adjusted to pH 7.4, and equilibrated with 100% O2. Next, the heart was perfused with an enzyme solution containing collagenase (0.2 mg/ml; Worthington Type II) and trypsin (0.04 mg/ml) at 35° C. for 10-12 min. After this perfusion, the atria were removed and the ventricles minced and transferred to a 50 ml flask with an enzyme solution containing collagenase (0.45 mg/ml), trypsin (0.08 mg/ml), Ca^2+ (0.75 mM) and bovine serum albumin (BSA; 4.8 mg/ml). The flask was shaken vigorously for 5-10 min at 32° C. before the supernatant was removed and the cells were collected by centrifugation, this operation was repeated two or three times and additional disaggregated cells were collected. After centrifugation, the myocytes were resuspended in the buffer solution containing Ca^2+ (0.75 mM) and BSA and stored at room temperature until use. Rod-shaped, Ca^2+-tolerant myocytes, obtained with this procedure, were used within 6 h of dissociation. Measurements were performed only on quiescent myocytes with clear striations
The myocyte suspension or the coverslip with CHO cells was placed into a perfusion chamber, mounted on the stage of an inverted microscope. Unless otherwise indicated, CHO cells were superfused at room temperature with standard external Tyrode's buffer, containing (mM): NaCl, 140; KCl, 5.4; CaCl2, 1; MgCl2, 1; HEPES, 5; glucose, 10; adjusted to pH 7.4. Recordings were begun after the current reached a stable baseline (usually 3 to 4 min after initial cell rupture). In myocytes, TASK-1 current is small and exists in the presence of numerous larger K^+ currents. In order to increase the inward component of TASK-1 current and to block other potassium currents in myocytes, a modified high K^+ external solution (modified Tyrode's) was used to reduce outward rectification of TASK-1 current. The composition of this solution-was (in mM): NaCl, 100; KCl, 50; CaCl2, 1; MgCl2, 1; HEPES, 5; glucose, 10; tetraethylammonium (TEA), 1; CsCl, 5; adjusted to pH 7.4. Membrane potential and current were measured in the whole cell configuration using borosilicate glass pipettes with a tip resistance between […] and filled with a pipette solution containing (mM): aspartic acid, 130; KOH, 146; NaCl, 10; CaCl2, 2; EGTA, 5; HEPES, 10; MGATP, 2; pH 7.2. The stock solutions of C-PAF and of the PKC inhibitor, bisindolylmaleimide (BIM-I; Calbiochem), were prepared in water and diluted to the final concentrations in Tyrode's or modified Tyrode's, as appropriate. The PKC activator, PMA, was prepared in DMSO and then diluted in Tyrode's. […] Myocytes treated with the peptides were monitored continuously beginning immediately after rupture to detect the occurrence of any arrhythmias during dialysis of the peptide. Application of C-PAF to cells treated with the inhibitor peptide was started after the peptide had been permitted to dialyse into the cell (8-10 min after rupture for CHO or 10-12 min after rupture for myocytes).
The current and the voltage protocols were generated using Clampex 8.0 software applied by means of an Axopatch 200-B and a Digidata 1200 interface (Axon Instruments). In current clamp mode, for recording action potentials, the signals were filtered at 1 KHz (low pass Bessel filter) and acquired at a sampling rate of 5 KHz. […]

[2] = target: T1, hTASK-1 (Homo sapiens, UniProt O14649); assay: hTASK-1 current in CHO cells (ramp clamp, pH 8); type: cell-based; settings: Tyrode's pH 8; read-out: EC50 for activation of TASK-1 current
T1 construct: expressed in transfected cells; host or cells: CHO cells
Method: FIG. 21. CHO cells (hTREK-1, hTASK-1) or HEK cells (mTRAAK) were co-transfected with plasmids encoding one of the two pore domain channels and GFP using the GeneJammer reagent. After 48-60 h, the expressed current was measured using a ramp protocol while the cells were perfused with regular Tyrode's solution containing varying concentrations of ONO-RS-082 (range of concentration from 10 nM to 500 μM as noted in FIG. 21) until a steady state was reached. Each cell was exposed to only one concentration of drug. Panel A: TREK-1 current was determined using a ramp clamp, and the percent increase induced by ONO-RS-082 was measured at the most positive imposed voltage (n≧5). The EC50 for activation was around 3 μM and the basal and ONO-activated current densities are noted. Panel B: TASK-1 current was determined using a ramp clamp in Tyrode's solution at pH=8 and the percent increase induced by ONO-RS-082 was measured at the most positive imposed voltage (n≧4). The EC50 was around 8 μM and the basal and ONO-activated current densities are noted. Panel C: TRAAK current was determined using a ramp clamp, and the percent increase induced by ONO-RS-082 was measured at the most positive imposed voltage (n≧4). The EC50 was around 0.9 μM and the basal and ONO-activated current densities are noted.

[3] = tested on: murine ventricular myocytes; assay: Arrhythmias induced by PKCε activator peptide in murine ventricular myocytes, rescue by TREK-1 activators; type: cell-based, mouse
Method: FIGS. 23A-23D. Activation of TREK-1 can overcome arrhythmias induced by inhibition of TASK-1. Isolated murine ventricular myocytes were studied in current clamp mode and paced at 1 Hz. The cells were studied in regular Tyrode's, pH 7.4. Recordings were begun immediately after rupture and continued for 12-15 min, with the 5.5 min time point illustrated. A PKCε-specific activator peptide (100 nM) was included in the patch pipette, which lead to inhibition of TASK-1 current and repolarization abnormalities (23A and 23B).
FIG. 25. Activation of TREK-1 can overcome arrhythmias induced by inhibition of TASK-1. Isolated murine ventricular myocytes were studied in current clamp mode and paced at 1 Hz. The cells were studied in regular Tyrode's, pH 7.4. Recordings were begun immediately after rupture and continued for 12-15 min. A PKCε-specific activator peptide (100 nM) […] or a scrambled control peptide (100 nM) (25A) was included in the patch pipette. After the activator peptide had induced repolarization abnormalities (25B left panel), a TREK-1 activator, ONO-RS-082 (100 nM) was added to the superfusion.
Isolated murine ventricular myocytes were studied in current clamp mode and paced at 1 Hz. The cells were studied in regular Tyrode's, pH 7.4, and recordings were begun immediately after rupture and continued for 12-15 min, with the 5.5 min timepoint illustrated. As shown in FIGS. 23A and 23B, a PKCε-specific activator peptide (100 nM) was included in the patch pipette which lead to inhibition of TASK-1 current and repolarization abnormalities.

T1 sequence (O14649 whole entry): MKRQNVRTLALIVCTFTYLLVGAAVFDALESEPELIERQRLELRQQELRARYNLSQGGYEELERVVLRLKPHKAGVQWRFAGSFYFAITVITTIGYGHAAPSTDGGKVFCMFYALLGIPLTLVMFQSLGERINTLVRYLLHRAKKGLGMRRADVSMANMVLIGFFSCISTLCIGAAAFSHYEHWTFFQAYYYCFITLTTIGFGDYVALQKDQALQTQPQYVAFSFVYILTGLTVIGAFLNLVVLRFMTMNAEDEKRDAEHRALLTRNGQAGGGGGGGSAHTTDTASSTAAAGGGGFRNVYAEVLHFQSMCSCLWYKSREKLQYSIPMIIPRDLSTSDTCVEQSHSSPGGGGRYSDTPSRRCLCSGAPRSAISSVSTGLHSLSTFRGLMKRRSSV

EC50 [2] | Compound | cells with repolarization abnormalities ([1]; C-PAF 2 min, no peptide in pipette) | repolarization abnormalities ([1]; C-PAF, PKCε-specific inhibitor peptide 100 nM in pipette) | cells with abnormalities during repolarization ([1]; C-PAF, scrambled peptide 100 nM in pipette) | effect on established peptide-induced arrhythmia ([3]; ONO-RS-082 100 nM in superfusion) | rhythm after washout of drug ([3]; ONO-RS-082 removed)
– | CCCCCCCCCCCCCCCCOC[C@H](COP(=O)([O-])OCC[N+](C)(C)C)OC(=O)NC [C-PAF, carbamyl-platelet-activating factor] | 5 of 7 | failed to induce repolarization abnormalities in any of the 8 cells | 14 of 19 | – | –
~8 µM | CCCCCc1ccc(C=CC(=O)Nc2cc(Cl)ccc2C(=O)O)cc1 [ONO-RS-082] | – | – | – | promptly reversed the arrhythmia | the arrhythmias recurred
